These compounds were tested against T1, β-lactamase of Enterobacter cloacae P99 (Enterobacter cloacae, UniProt P05364) (assay: Ki of conjugates, calculated using the β-lactamase of Enterobacter cloacae P99). Conditions: not given.
T1 construct: Class C β-lactamase as that extracted from Enterobacter cloacae P99; host or cells: Enterobacter cloacae P99 (enzyme described as extracted from this strain)
T1 sequence (P05364 21-381): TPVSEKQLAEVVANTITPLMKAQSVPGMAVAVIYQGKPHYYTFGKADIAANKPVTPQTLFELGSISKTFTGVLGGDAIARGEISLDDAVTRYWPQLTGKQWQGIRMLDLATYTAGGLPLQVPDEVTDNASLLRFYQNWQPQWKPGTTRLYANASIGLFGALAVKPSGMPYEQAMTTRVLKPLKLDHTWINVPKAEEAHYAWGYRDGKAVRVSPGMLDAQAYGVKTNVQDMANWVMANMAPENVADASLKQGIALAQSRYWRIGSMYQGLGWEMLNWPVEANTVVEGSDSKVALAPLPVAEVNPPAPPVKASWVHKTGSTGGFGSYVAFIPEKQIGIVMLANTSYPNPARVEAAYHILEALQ
Type: biochemical
From the text: (§1) The particular mode of conjugation claimed in the present invention guarantees to maintain kinetic parameters (Km, Ki, kcat and Ka=k2/K, where Km is the enzyme Michaelis-Menten constant, Ki is the inhibitor-enzyme complex dissociation constant, kcat the catalytic constant and Ka the apparent second-order rate constant for acyl enzyme formation respectively) toward β-lactamases and penicillin detectors, which are essentially the same as those of common penicillins.
^x(Column 9): calculated using the β-lactamase of Enterobacter cloacae P99
For `Cc1onc(-c2ccc(C(=O)OC3CCC4C5CCc6cc(O)ccc6C5CCC34C)cc2)c1C(=O)NC1C(=O)N2C1SC(C)(C)C2C(=O)O` (stereo not drawn) [Conjugate 4], the Ki was 24 ± 26 nM.
In the case of `Cc1onc(-c2ccc(C(=O)OC3CCC4C5CCC6=CC(=O)CCC6C5CCC34C)cc2)c1C(=O)NC1C(=O)N2C1SC(C)(C)C2C(=O)O` (stereo not drawn) [Conjugate 5], the Ki is reported as 18 ± 23 nM.
With `Cc1onc(-c2ccc(C(=O)OC3CCC4C5CCC6=CC(=O)CCC6(C)C5CCC34C)cc2)c1C(=O)NC1C(=O)N2C1SC(C)(C)C2C(=O)O` (stereo not drawn) [Conjugate 6] the Ki was 22 ± 19 nM.
`CC(=O)C1CCC2C3CCC4=CC(=O)CCC4(C)C3C(OC(=O)c3ccc(-c4noc(C)c4C(=O)NC4C(=O)N5C4SC(C)(C)C5C(=O)O)cc3)CC12C` (stereo not drawn) [Conjugate 7] gave a Ki of 19 ± 27 nM.
Work on `Cc1onc(-c2ccc(C(=O)NCCCCC(=O)OC3CCC4C5CCC6=CC(=O)CCC6C5CCC34C)cc2)c1C(=O)NC1C(=O)N2C1SC(C)(C)C2C(=O)O` (stereo not drawn) [Conjugate 8] yielded a Ki of 23 ± 18 nM.
`Cc1onc(-c2ccc(C(=O)NCCCCC(=O)OC3CCC4C5CCC6=CC(=O)CCC6(C)C5CCC34C)cc2)c1C(=O)NC1C(=O)N2C1SC(C)(C)C2C(=O)O` (stereo not drawn) [Conjugate 9] showed a Ki of 17 ± 21 nM.
With `Cc1onc(-c2ccc(OCCOC3CCC4C5CCc6cc(O)ccc6C5CCC34C)c(Cl)c2)c1C(=O)NC1C(=O)N2C1SC(C)(C)C2C(=O)O` (stereo not drawn) [Conjugate 10] the Ki was 14 ± 17 nM.
`Cc1onc(-c2ccc(OCCOC3CCC4C5CCC6=CC(=O)CCC6C5CCC34C)c(Cl)c2)c1C(=O)NC1C(=O)N2C1SC(C)(C)C2C(=O)O` (stereo not drawn) [Conjugate 11] was tested, and the Ki was 12 ± 14 nM.
`Cc1onc(-c2ccc(OCCOC3CCC4C5CCC6=CC(=O)CCC6(C)C5CCC34C)c(Cl)c2)c1C(=O)NC1C(=O)N2C1SC(C)(C)C2C(=O)O` (stereo not drawn) [Conjugate 12] was tested, and the Ki was 15 ± 16 nM.
In the case of `CC(=O)C1CCC2C3CCC4=CC(=O)CCC4(C)C3C(OCCOc3ccc(-c4noc(C)c4C(=O)NC4C(=O)N5C4SC(C)(C)C5C(=O)O)cc3Cl)CC12C` (stereo not drawn) [Conjugate 13], the Ki is reported as 20 ± 21 nM.
`Cc1onc(-c2ccc(C(=O)NCCCOC3CCC4C5CCc6cc(O)ccc6C5CCC34C)cc2)c1C(=O)NC1C(=O)N2C1SC(C)(C)C2C(=O)O` (stereo not drawn) [Conjugate 14] gave a Ki of 18 ± 23 nM.
`Cc1onc(-c2ccc(C(=O)NCCCOC3CCC4C5CCC6=CC(=O)CCC6C5CCC34C)cc2)c1C(=O)NC1C(=O)N2C1SC(C)(C)C2C(=O)O` (stereo not drawn) [Conjugate 15] was tested, and the Ki was 28 ± 22 nM.
For `Cc1onc(-c2ccc(C(=O)NCCCOC3CCC4C5CCC6=CC(=O)CCC6(C)C5CCC34C)cc2)c1C(=O)NC1C(=O)N2C1SC(C)(C)C2C(=O)O` (stereo not drawn) [Conjugate 16], the Ki was 26 ± 27 nM.
Work on `CC(=O)C1CCC2C3CCC4=CC(=O)CCC4(C)C3C(OCCCNC(=O)c3ccc(-c4noc(C)c4C(=O)NC4C(=O)N5C4SC(C)(C)C5C(=O)O)cc3)CC12C` (stereo not drawn) [Conjugate 17] yielded a Ki of 21 ± 24 nM.
For `Cc1onc(-c2ccc(OC(=O)CCC(=O)OC3CCC4C5CCC6=CC(=O)CCC6(C)C5CCC34C)cc2)c1C(=O)NC1C(=O)N2C1SC(C)(C)C2C(=O)O` (stereo not drawn) [Conjugate 18], the Ki was 23 ± 19 nM.
`Cc1onc(-c2ccc(OC(=O)CCC(=O)OC3CCC4C5CCC6=CC(=O)CCC6C5CCC34C)cc2)c1C(=O)NC1C(=O)N2C1SC(C)(C)C2C(=O)O` (stereo not drawn) [Conjugate 19] showed a Ki of 21 ± 24 nM.
With `Cc1onc(-c2ccc(NC(=O)CCOC3CCC4C5CCC6=CC(=O)CCC6(C)C5CCC34C)cc2)c1C(=O)NC1C(=O)N2C1SC(C)(C)C2C(=O)O` (stereo not drawn) [Conjugate 20] the Ki was 29 ± 27 nM.
In the case of `Cc1onc(-c2ccc(NC(=O)CCOC3CCC4C5CCC6=CC(=O)CCC6C5CCC34C)cc2)c1C(=O)NC1C(=O)N2C1SC(C)(C)C2C(=O)O` (stereo not drawn) [Conjugate 21], the Ki is reported as 30 ± 33 nM.
With `Cc1onc(-c2ccc(NC(=O)CCOC3CCC4C5CCc6cc(O)ccc6C5CCC34C)cc2)c1C(=O)NC1C(=O)N2C1SC(C)(C)C2C(=O)O` (stereo not drawn) [Conjugate 23] the Ki was 19 ± 21 nM.
Compound `Cc1onc(-c2ccc(OCCC(=O)OC3CCC4C5CCC6=CC(=O)CCC6(C)C5CCC34C)cc2)c1C(=O)NC1C(=O)N2C1SC(C)(C)C2C(=O)O` (stereo not drawn) [Conjugate 24] has a Ki of 21 ± 26 nM.
`Cc1onc(-c2ccc(OCCC(=O)OC3CCC4C5CCC6=CC(=O)CCC6C5CCC34C)cc2)c1C(=O)NC1C(=O)N2C1SC(C)(C)C2C(=O)O` (stereo not drawn) [Conjugate 25] showed a Ki of 28 ± 31 nM.
In the case of `CC(=O)C1CCC2C3CCC4=CC(=O)CCC4(C)C3C(OC(=O)CCOc3ccc(-c4noc(C)c4C(=O)NC4C(=O)N5C4SC(C)(C)C5C(=O)O)cc3)CC12C` (stereo not drawn) [Conjugate 28], the Ki is reported as 26 ± 26 nM.
`Cc1onc(-c2ccc(OCCC(=O)OC3CCC4C5CCc6cc(O)ccc6C5CCC34C)cc2)c1C(=O)NC1C(=O)N2C1SC(C)(C)C2C(=O)O` (stereo not drawn) [Conjugate 29] showed a Ki of 21 ± 24 nM.

What follows are compounds tested against T2, penicillin detector of the Beta-Star® Test (Bacillus licheniformis, UniProt P12287) (assay: Ka (apparent second-order rate constant for acyl enzyme formation), calculated using the penicillin detector of the Beta-Star Test). Conditions: Ka=k2/K.
T2 construct: purchased UCB, Belgium (BetaSTAR kit)
T2 sequence (P12287 346-601): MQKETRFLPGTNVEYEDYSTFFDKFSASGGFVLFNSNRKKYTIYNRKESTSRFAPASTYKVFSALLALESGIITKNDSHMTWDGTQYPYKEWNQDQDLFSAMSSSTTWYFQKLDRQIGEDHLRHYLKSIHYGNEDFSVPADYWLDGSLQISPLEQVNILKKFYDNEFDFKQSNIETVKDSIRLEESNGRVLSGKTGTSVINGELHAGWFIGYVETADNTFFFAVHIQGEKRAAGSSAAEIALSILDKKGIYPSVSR
Type: binding
From the text: as §1
^□(Column 10): calculated using the penicillin detector of the Beta-Star® Test
The detector showing the best affinity for the progesterone benzylpenicillinate conjugate is the polypeptide included in the Beta-star® kit. This genetic engineering peptide has kept a very high affinity for benzylpenicillin but has no enzymatic activity. It is thus coupled to colored particles for allowing sensitive detection.
`CC(=O)C1CCC2C1CC(OC(C)Cc1ccc(CC(=O)NC3C(=O)N4C3SC(C)(C)C4C(=O)O)cc1)C1C3CCC(=O)C=C3CCC21` (stereo not drawn) [Conjugate 2] was tested, and the Ka was 4.6 ± 3.0 × 10^−6 L.M^−1.
`CC1(C)SC2C(NC(=O)Cc3ccc(CC(=O)OC4CCC5C6CCc7cc(O)ccc7C6CCC45C)cc3)C(=O)N2C1C(=O)O` (stereo not drawn) [Conjugate 30] was tested, and the Ka was 3.8 ± 2.9 × 10^−6 L.M^−1.
With `CC1(C)SC2C(NC(=O)Cc3ccc(CC(=O)OC4CCC5C6CCC7=CC(=O)CCC7(C)C6CCC45C)cc3)C(=O)N2C1C(=O)O` (stereo not drawn) [Conjugate 31] the Ka was 4.1 ± 3.2 × 10^−6 L.M^−1.
`CC1(C)SC2C(NC(=O)Cc3ccc(CC(=O)OC4CCC5C6CCc7cc(O)ccc7C6CCC45C)cc3)C(=O)N2C1C(=O)O` (stereo not drawn) [Conjugate 32] was tested, and the Ka was 4.8 ± 3.5 × 10^−6 L.M^−1.

The compounds below were run on CC1(C)SC2C(NC(=O)C(C(=O)OC3CCC4C5CCC6=CC(=O)CCC6C5CCC34C)c3ccccc3)C(=O)N2C1C(=O)O (assay: purified protein, by the assay type). Conditions: other: conjugate; type C β-lactamase P99.
“type C β-lactamase from Enterobacter cloacae P99 (Enterobacter cloacae)” showed a Km of 0.074 µM and a kcat of 0.25 s⁻¹.

The compounds below were run on CC(=O)C1CCC2C3CCC4=CC(=O)CCC4(C)C3C(OC(=O)c3ccc(-c4noc(C)c4C(=O)NC4C(=O)N5C4SC(C)(C)C5C(=O)O)cc3)CC12C (assay: purified protein, by the assay type). Conditions: other: conjugate; type C β-lactamase P99.
For “type C β-lactamase from Enterobacter cloacae P99 (Enterobacter cloacae)”, the Km was 0.0017 µM and the kcat was 0.01 s⁻¹.

These compounds were tested on O=C(Cc1cccs1)N[C@@H]1C(=O)N2C(C(=O)O)=C(/C=C/c3ccc([N+](=O)[O-])cc3[N+](=O)[O-])CS[C@H]12 (assay: purified protein, by the assay type). Conditions: other: reporter substrate; type C β-lactamase P99.
In the case of “type C β-lactamase from Enterobacter cloacae P99 (Enterobacter cloacae)”, the Km is reported as 25 µM and the kcat is reported as 780 s⁻¹.

From patent US20030235877A1, “Conjugates of haptens to beta-lactam derivatives and their use for detecting and/or quantifying haptens in solution and device for implementation thereof” (priority 1996, published 2003)
